Values quoted from earlier work in patent US8129131B2, “Pin1 as a marker for abnormal cell growth” (Beth Israel Deaconess Medical Center, priority 1999, dated 2012).

Tested on: Pin1 or its WW domain
Conditions: pre-incubation with various peptide concentrations before mitotic extracts; concentration-dependent

Chain of Pin1 or its WW domain (Q13526 1-39 limits assumed): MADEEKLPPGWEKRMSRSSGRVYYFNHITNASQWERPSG

phosphoprotein-binding activity of Pin1 or its WW domain: significantly reduced
Substance: WFYpSPRLKK [Pintide]
